Series [1] can be described thus: Selectivity index, ratio of CC50 for human MT4 cells to EC50 for Human immunodeficiency virus 1 3B. Format: toxicity, cell-based. The conditions noted are these: read-out: Ratio CC50/EC50.
In series [2] the target is T1, Human immunodeficiency virus type 1 integrase (Human immunodeficiency virus 1, UniProt Q7ZJM1). Briefly: Inhibition of Human immunodeficiency virus 1 integrase.
The test system of series [3] is Human immunodeficiency virus 1. The series is described as follows: Antiviral activity against Human immunodeficiency virus 1 3B infected in human MT4 cells assessed as inhibition of viral replication. Format: functional, organism-based.
Series [4] has as its system Human immunodeficiency virus 1. The series is described as follows: Antiretroviral activity against Human immunodeficiency virus 1 3B infected in human MT4 cells assessed as inhibition of virus-induced cytopathic effect by MTT assay. Format: functional, organism-based.
Series [5] concerns Human immunodeficiency virus 1. The series is described as follows: Antiretroviral activity against Human immunodeficiency virus 1 NL4.3 infected in human MT4 cells assessed as inhibition of virus-induced cytopathic effect by MTT assay. The conditions noted are these: Human immunodeficiency virus 1, NL4.3, MT4. Format: functional, organism-based.
Series [6] deals with Human immunodeficiency virus 2. Briefly: Antiretroviral activity against Human immunodeficiency virus 2 ROD infected in human MT4 cells assessed as inhibition of virus-induced cytopathic effect by MTT assay. Particulars: Human immunodeficiency virus 2, ISOLATE ROD. Format: functional, organism-based.
Series [7] relates to Human immunodeficiency virus 2. Briefly: Antiretroviral activity against Human immunodeficiency virus 2 EHO infected in human MT4 cells assessed as inhibition of virus-induced cytopathic effect by MTT assay. Format: functional, organism-based.
For series [8], the system named is Simian immunodeficiency virus. The series is described as follows: Antiretroviral activity against Simian immunodeficiency virus MAC 251 infected in human MT4 cells assessed as inhibition of virus-induced cytopathic effect by MTT assay. Format: functional, organism-based. Particulars: MAC 251, MT4.
Series [9] has as its system Human immunodeficiency virus 1. The series is described as follows: Ratio of EC50 for Human immunodeficiency virus 1 3B after 70 passages to EC50 for wild-type Human immunodeficiency virus 1 3B. Format: functional.
The subject of series [10] is Human immunodeficiency virus 1. The series is described as follows: Antiviral activity against X4 tropic Human immunodeficiency virus 1 3B infected in PMBC. Format: functional, organism-based.
Series [11] has as its system Human immunodeficiency virus 1. The series is described as follows: Antiviral activity against R5 tropic Human immunodeficiency virus 1 BAL infected in PMBC. Format: functional, organism-based.
The test system of series [12] is Human immunodeficiency virus 1. Briefly: Antiviral activity against Reverse transcriptase inhibitor-resistant Human immunodeficiency virus 1 infected in human MT4 cells assessed as inhibition of virus-induced cytopathic effect by MTT assay. Format: functional, organism-based. Particulars: Human immunodeficiency virus 1, MT4.
The subject of series [13] is Human immunodeficiency virus 1. Briefly: Antiviral activity against non nucleoside reverse transcriptase inhibitor-resistant Human immunodeficiency virus 1 infected in human MT4 cells assessed as inhibition of virus-induced cytopathic effect by MTT assay. The conditions noted are these: Human immunodeficiency virus 1, MT4. Format: functional, organism-based.
In series [14] the test system is Human immunodeficiency virus 1. The series is described as follows: Antiviral activity against Protease inhibitor-resistant Human immunodeficiency virus 1 infected in human MT4 cells assessed as inhibition of virus-induced cytopathic effect by MTT assay. Particulars: Human immunodeficiency virus 1, MT4. Format: functional, organism-based.
For series [15], the system named is Human immunodeficiency virus 1. The series is described as follows: Antiviral activity against Human immunodeficiency virus 1 during lentiviral transduction process assessed as inhibition of early cDNA synthesis by Lentiviral vector transduction assay. Format: functional, organism-based.
Series [16] concerns Human immunodeficiency virus 1. Briefly: Antiviral activity against Human immunodeficiency virus 1 infected in 293T cells assessed as inhibition of early cDNA synthesis by Lentiviral vector transduction assay. Format: functional, organism-based.
Series [17] deals with Human immunodeficiency virus 1. The series is described as follows: Antiviral activity against Human immunodeficiency virus 1 infected in 293T cells assessed as integrated proximal DNA by Q-PCR. Format: functional, organism-based.
The test system of series [18] is Human immunodeficiency virus 1. Briefly: Antiviral activity against Human immunodeficiency virus 1 infected in 293T cells assessed as increase in amount of 2-LTR circles by Q-PCR in presence of 12.2 uM CHI/1043. Format: functional, organism-based.
Series [19] can be described thus: Intrinsic clearance in human liver microsome. The conditions noted are these: liver microsomes. Format: ADME.
A short description of series [20]: Apparent permeability from apical to basolateral side of human Caco2 cells. Format: ADME, cell-based. The conditions noted are these: Caco-2.
A short description of series [21]: Cytotoxicity against human MT4 cells by MTT assay. Format: cell-based.
Series [22] has as its target T1, Human immunodeficiency virus type 1 integrase. The series is described as follows: Inhibition of Human immunodeficiency virus 1 integrase strand transfer activity.

The source made the active and inactive calls. The calls are words filed in the database; no cut-off is given here.

T1 sequence (Q7ZJM1 whole entry): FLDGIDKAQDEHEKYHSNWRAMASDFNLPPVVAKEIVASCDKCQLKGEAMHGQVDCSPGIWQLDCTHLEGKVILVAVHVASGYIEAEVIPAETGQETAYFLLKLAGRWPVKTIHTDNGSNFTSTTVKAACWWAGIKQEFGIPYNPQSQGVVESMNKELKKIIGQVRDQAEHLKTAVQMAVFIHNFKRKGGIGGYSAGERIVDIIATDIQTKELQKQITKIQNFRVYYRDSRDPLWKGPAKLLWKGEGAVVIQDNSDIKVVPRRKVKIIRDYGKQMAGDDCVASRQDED

In the case of `CCOC(=O)/C(O)=C/C(=O)c1cn(Cc2ccc(F)cc2)c2c(OC)cccc12`, the selectivity ratio in series [1] is 1.

`COc1cccc2c1c(C(=O)/C=C(\O)C(=O)O)cn2Cc1ccc(F)cc1` had an IC50 in [2] of 110 nM. The concentration for a half-maximal effect (EC50) amounted to 600 nM in [3]; 600 nM in [4]; 730 nM in [5]; 2110 nM in series [6]; 1760 nM in series [7]; 4760 nM in series [8]. Moreover, the EC50 in series [10] was determined as 300 nM; in series [11], 300 nM; in series [12], 860 nM; in series [13], 840 nM; in [14] it was 680 nM. For the same molecule, the selectivity ratio in [1] was 69.8. Besides, the “Ratio EC50” value in series [9] was over 40. Moreover, the inhibition entry in series [15], in series [17] and in series [18] was “inactive” each time. For the same molecule, in series [16], the inhibition entry is “Active”. The microsomal CLint in series [19] was found to be 11 µL/min/mg. Besides, in series [20], the Papp A→B was found to be 5.5 ×10⁻⁶ cm/s.

Consider `CCOC(=O)/C(O)=C/C(=O)c1cn(Cc2ccc(F)cc2)c2cccc(OC)c12`, for which the selectivity ratio in series [1] worked out at 24.

Take `COc1ccc2c(c1)c(C(=O)/C=C(\O)C(=O)O)cn2Cc1ccc(F)cc1`: the selectivity ratio in series [1] was 12.

`CCOC(=O)/C(O)=C/C(=O)c1cn(Cc2ccc(F)cc2)c2cc(OC)ccc12`: in series [1], the selectivity ratio is under 1.

Take `COc1cc2c(cc1Cc1cccc(Cl)c1F)c(=O)c(C(=O)O)cn2[C@H](CO)C(C)C`: in [3], the EC50 came out at 0.83 nM.

Take `CCOC(=O)/C(O)=C/C(=O)c1cn(Cc2ccc(F)cc2)c2ccc(OC)cc12`: the selectivity ratio in series [1] amounted to 11.

In the case of `COc1ccc2c(C(=O)/C=C(\O)C(=O)O)cn(Cc3ccc(F)cc3)c2c1`, the selectivity ratio in series [1] worked out at 8.

Consider `O=C(O)C(=O)CC(=O)c1cc(OCc2ccccc2)cc(OCc2ccccc2)c1`, for which the concentration for a half-maximal effect (EC50) in [3] stood at 12400 nM; in series [4], 12400 nM; in series [5], 24500 nM; in series [6], 62100 nM; in series [8] it was 22600 nM; in series [12] it was 7200 nM. For the same molecule, the EC50 in series [13] stood at 19300 nM; in series [14] it was 7400 nM. Also, half-maximal cytotoxicity in series [21] (CC50) was put at 62000 nM. Further, the selectivity ratio in [1] is 5.

With `COc1cccc2c(C(=O)/C=C(\O)C(=O)O)cn(Cc3ccc(F)cc3)c12`, the selectivity ratio in series [1] is 12.

Take `Cc1cn([C@H]2C[C@H](N=[N+]=[N-])[C@@H](CO)O2)c(=O)[nH]c1=O` [ZIDOVUDINE]: the EC50 in [4] stood at 27 nM; in series [5], 21 nM; in [6], 67 nM; in series [7], 56 nM; in series [8] it was 11 nM; in series [12], 200 nM. The EC50 in [13] stood at 20 nM; in series [14], 26 nM.

Take `O=C(O)/C(O)=C/C(=O)c1cn(Cc2ccccc2)c2ccccc12`: the IC50 in series [2] was 860 nM; in series [22] it was 2330 nM. In series [3], the EC50 worked out at 8350 nM. The same molecule returned a CC50 in series [21] of 64100 nM. Moreover, the selectivity ratio in series [1] was 8.

Regarding `COc1ccc(OC)c2c1c(C(=O)/C=C(\O)C(=O)O)cn2Cc1ccc(F)cc1`, in series [1], the selectivity ratio stood at 100.

Turning to `Cc1c(O)cccc1C(=O)N[C@@H](CSc1ccccc1)[C@H](O)CN1C[C@H]2CCCC[C@H]2C[C@H]1C(=O)NC(C)(C)C`, the EC50 in series [4] is 28 nM; in series [5] it was 23 nM; in [6] it was 50 nM; in series [7], 49 nM; in series [8], 50 nM; in series [12], 29 nM. Besides, the EC50 in [13] was 35 nM; in series [14], 170 nM.

With `CCOC(=O)/C(O)=C/C(=O)c1cn(Cc2ccc(F)cc2)c2c(OC)ccc(OC)c12`, in [1], the selectivity ratio is 20.

Consider `Cc1nnc(C(=O)NC(C)(C)c2nc(C(=O)NCc3ccc(F)cc3)c(O)c(=O)n2C)o1`, for which the EC50 in series [3] amounted to 1.4 nM.

`O=C1Nc2ccc(Cl)cc2[C@@](C#CC2CC2)(C(F)(F)F)O1` [EFAVIRENZ]: the EC50 in series [6], in series [7] and in series [8] was over 31700 nM each time.

For `O=C(NCc1ccc(F)cc1)c1nc(N2CCCCS2(=O)=O)c2cccnc2c1O`, the IC50 in series [2] turned out to be 2.3 nM; in [22], 7 nM. In addition, the concentration giving a half-maximal response (EC50) in [3] stood at 4.9 nM. This molecule had a CC50 in series [21] of 2250 nM. In addition, the selectivity ratio in series [1] amounted to 460.
